Legend:
[1] = tested on: primary human intestinal organoids; format: cell-based
Protocol: (§1) To measure the effect of (R)-3-HB on inflammation of primary human intestinal organoids, healthy large intestine samples of a donor were cultured for 8 weeks in vitro prior to experiments. Method as used in Hannan et al., Stem Cell Reports. Vol. 1, 293-306 Oct. 15, 2013.
2) To induce inflammation, organoids were treated with TNF-α (40 ng/mL) alone or in combination with (R)-3-HB (sodium salts at 10 μM) for 18 hours. Subsequently, cells were lysed and RNA was isolated for cDNA synthesis and mRNA expression levels of a panel of inflammation factors was measured by qPCR.

HCA2 receptor (gpr109A) = HCA2 receptor (gpr109A) (Mus musculus, UniProt Q9EP66); details: read-out: EC50 of binding to HCA2 receptor; cited from earlier work
[2] = tested on: primary human intestinal organoids; format: cell-based; details: TNFα 40 ng/mL, 10 μM, 18 hours
Protocol: as §1
1) To induce inflammation, organoids were treated with TNFα (40 ng/mL) alone or in combination with butyrate (10 μM), (R)-3-HB (10 μM), or butyrate and (R)-3-HB for 18 hours. Subsequently, cells were lysed and RNA was isolated for cDNA synthesis and measurement of mRNA expression levels of inflammation factors, NF-κB and TNFα, by qPCR.

[3] = tested on: primary human intestinal organoids; format: cell-based; details: TNF-α 60 ng/mL, 24 hours
Protocol: 3) The effect of (R)-3-HB and the related SCFA butyrate on the inflammatory response exerted by primary human intestinal organoids upon co-incubation with TNF-α as inflammatory stimulus was measured. Primary human intestinal organoids were cultured for 8 weeks prior to experiments as described in Hannan et al. (2013) Stem Cell Reports.
To induce inflammation, organoids were treated with 60 ng/mL TNF-α alone or in combination with different concentrations of the sodium salts of (R)-3-HB or butyrate for 24 hours. Subsequently, cells were lysed and RNA was isolated using the RNeasy mini kit (Qiagen Ltd, Germany) for synthesis of cDNA. mRNA expression levels of IL-23 was measured by qPCR using the SensiMix SYBR low-ROX kit (Bioline, UK).
Values were normalized versus untreated control and graphs show the difference of mRNA levels measured in organoids treated with TNF-α alone (set as 0) and those treated with TNF-α and butyrate or (R)-3-HB.

[4] = molecular target: hydroxy-carboxylic acid receptor 2 (HCA2, GPR109A) (Mus musculus, UniProt Q9EP66); details: in vivo; cited from earlier work
histone acetylation = details: cited from earlier work
NLRP3 inflammasome = NLRP3 inflammasome (Homo sapiens, UniProt Q96P20); details: cited from earlier work
[5] = TNF-α 40 ng/mL, sodium salt 10 μM, 18 hours

NLRP3 inflammasome, sequence (Q96P20 whole entry): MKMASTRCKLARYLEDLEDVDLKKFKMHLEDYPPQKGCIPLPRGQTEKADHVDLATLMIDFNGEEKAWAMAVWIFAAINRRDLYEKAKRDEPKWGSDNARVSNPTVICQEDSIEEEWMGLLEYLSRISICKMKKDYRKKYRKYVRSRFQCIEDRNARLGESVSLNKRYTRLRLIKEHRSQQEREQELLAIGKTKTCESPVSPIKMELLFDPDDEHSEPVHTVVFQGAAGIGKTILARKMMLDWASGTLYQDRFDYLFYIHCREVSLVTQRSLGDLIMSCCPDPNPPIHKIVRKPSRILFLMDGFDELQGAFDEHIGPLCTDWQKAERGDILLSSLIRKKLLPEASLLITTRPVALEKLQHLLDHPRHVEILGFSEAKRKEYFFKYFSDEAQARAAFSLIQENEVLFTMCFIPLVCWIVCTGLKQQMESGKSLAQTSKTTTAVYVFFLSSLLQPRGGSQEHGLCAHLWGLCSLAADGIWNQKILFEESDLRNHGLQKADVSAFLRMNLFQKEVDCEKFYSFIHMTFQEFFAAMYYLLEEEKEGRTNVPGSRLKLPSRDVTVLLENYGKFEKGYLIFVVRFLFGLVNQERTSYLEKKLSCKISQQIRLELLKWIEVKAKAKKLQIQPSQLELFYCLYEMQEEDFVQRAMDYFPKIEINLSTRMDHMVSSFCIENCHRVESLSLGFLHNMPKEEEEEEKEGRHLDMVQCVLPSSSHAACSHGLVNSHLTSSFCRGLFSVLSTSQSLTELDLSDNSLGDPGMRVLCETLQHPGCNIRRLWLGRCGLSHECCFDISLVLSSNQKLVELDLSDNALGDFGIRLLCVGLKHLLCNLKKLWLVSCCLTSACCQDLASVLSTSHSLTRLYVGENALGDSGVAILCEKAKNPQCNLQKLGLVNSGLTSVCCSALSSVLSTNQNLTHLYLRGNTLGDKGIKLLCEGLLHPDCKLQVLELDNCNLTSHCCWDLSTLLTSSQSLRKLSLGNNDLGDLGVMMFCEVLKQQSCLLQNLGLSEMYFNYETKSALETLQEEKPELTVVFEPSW
hydroxy-carboxylic acid receptor 2 (HCA2, GPR109A), sequence (Q9EP66 whole entry): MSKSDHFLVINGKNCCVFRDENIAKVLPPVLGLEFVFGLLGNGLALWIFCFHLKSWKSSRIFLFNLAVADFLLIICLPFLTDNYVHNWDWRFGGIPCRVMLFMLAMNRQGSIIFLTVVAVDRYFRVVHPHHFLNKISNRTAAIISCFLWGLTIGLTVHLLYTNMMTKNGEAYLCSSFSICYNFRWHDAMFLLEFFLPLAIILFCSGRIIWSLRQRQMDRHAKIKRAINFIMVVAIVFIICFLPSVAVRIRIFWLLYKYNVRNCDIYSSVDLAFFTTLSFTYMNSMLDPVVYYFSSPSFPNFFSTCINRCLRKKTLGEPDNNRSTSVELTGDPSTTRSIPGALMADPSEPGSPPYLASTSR
HCA2 receptor (gpr109A), sequence (Q9EP66 whole entry): as above

Structure (SMILES)	IL-1β mRNA expression vs TNF-α alone [1, 5]	IL-6 mRNA expression vs TNF-α alone [1, 5]	IL-10 mRNA expression vs TNF-α alone [1, 5]	IL-23 mRNA expression vs TNF-α alone [1, 5]	NF-κβ mRNA expression vs TNF-α alone [1, 5]	TGF-β1 mRNA expression vs TNF-α alone [1, 5]	TNF-α mRNA expression vs TNF-α alone [1, 5]	effect on pro-inflammatory regulators of IBD compared with butyrate ([1]; data not shown)	effect on protective regulators of intestinal inflammation compared with butyrate ([1]; data not shown)	EC50 (HCA2 receptor (gpr109A))	NF-κB mRNA expression [2]	TNF-α mRNA expression [2]	impact on IL-23 expression compared with butyrate ([3]; 10-100 μM)	concentrations effective at reducing expression of IL-23 ([3]; sodium salt)	concentration associated with neuroprotection [4]	concentration that increases histone acetylation in a dose dependent manner (histone acetylation)	concentration that reduced NLRP3 inflammasome activity (NLRP3 inflammasome)
C[C@@H](O)CC(=O)O [(R)-3-HB, (R)-3-hydroxybutyrate]	decreased	decreased	increased	decreased	decreased	increased	decreased	greater reducing effect than butyrate	greater inducing effect	318 µM	decreased	decreased	greater reducing impact	10 to 100 µM	–	–	–
CC(O)CC(=O)O (centres unmarked) [3-HB, 3-hydroxybutyric acid]	–	–	–	–	–	–	–	–	–	–	–	–	–	–	600-1,000 μM	1 to 2 mM	2 to 10 mM

From patent publication US20210023030A1 (priority 2018, published 2021)
